Data: patent US20250136722A1, “CYTOTOXICITY TARGETING CHIMERAS” (GLAXOSMITHKLINE INTELLECTUAL PROPERTY DEVELOPMENT LIMITED, priority 2021, published 2025)
Values joined by “and” are separate entries in the source; they are usually repeats but may differ in a detail not shown here. Identical values can stand only once.

Columns and labels:
[1] = molecular target: T1, CHOK1 cells engineered to overexpress human CCR2 (Homo sapiens, UniProt P41597); test: Antibody dependent cellular cytotoxicity (ADCC) reporter assay (Example 199); type: cell-based; conditions: with anti-cotinine antibody SEQ ID NO: 11/12; CHOK1-human CCR2 target cells, Jurkat FcγRIIIa NFAT-luciferase reporter cells; 12-18 hours; read-out: ADCC Reporter Assay pEC50 (converted)
T1 construct: expressed in transfected cells; host or cells: CHOK1 cells
In short: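 CHOK1-hCCR2 target cells are co-incubated for 12–18 h with Jurkat FcγRIIIa/NFAT-luciferase reporter cells, ARM compound (1 pM–10 μM) and anti-cotinine antibody with a DE-mutant human IgG1 Fc (0.01–200 μg/mL). Luminescence is expressed as signal:background against no-compound wells; EC50 comes from nonlinear fit and is reported as pEC50, averaged across runs.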

[2] = molecular target: Anti-cotinine antibody (SEQ ID NO: 11 / SEQ ID NO: 12, rabbit variable region with human IgG1 Fc domain); test: Binding of anti-cotinine antibody to ARM compounds by SPR, Biacore T200, 37° C. (Example 202); conditions: pH 7.4, rabbit variable region/human IgG1 Fc antibody captured on protein A
In short: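 Antibody captured on protein A chip. Compounds injected (3-fold, 5-point, top 200 nM) at 100 μL/min with 200 s association and 2000 s dissociation, at 37° C. in HEPES pH 7.4 buffer with 1% DMSO. Double-referenced data fit to 1:1 kinetics. Kd = koff/kon, reported as pKd, averaged over runs.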

[3] = molecular target: human alpha1 nicotinic acetylcholine (nACh) receptor (Homo sapiens, UniProt P02708+Q07001); test: Nicotinic acetylcholine receptor antagonism assay, IONFlux automated patch clamp (Example 203); type: cell-based; conditions: for Emax at 100 µM: maximum percentage antagonism at maximum concentration tested 100 μM; for Emax at 100 µM / Emax at 10 µM: read-out: Maximum Response (%); for IC50: nAChR antagonism, ACh stimulated, patch clamp; for Emax at 10 µM: maximum percentage antagonism at maximum concentration tested 10 μM
Chain of human alpha1 nicotinic acetylcholine (nACh) receptor (P02708 21-457): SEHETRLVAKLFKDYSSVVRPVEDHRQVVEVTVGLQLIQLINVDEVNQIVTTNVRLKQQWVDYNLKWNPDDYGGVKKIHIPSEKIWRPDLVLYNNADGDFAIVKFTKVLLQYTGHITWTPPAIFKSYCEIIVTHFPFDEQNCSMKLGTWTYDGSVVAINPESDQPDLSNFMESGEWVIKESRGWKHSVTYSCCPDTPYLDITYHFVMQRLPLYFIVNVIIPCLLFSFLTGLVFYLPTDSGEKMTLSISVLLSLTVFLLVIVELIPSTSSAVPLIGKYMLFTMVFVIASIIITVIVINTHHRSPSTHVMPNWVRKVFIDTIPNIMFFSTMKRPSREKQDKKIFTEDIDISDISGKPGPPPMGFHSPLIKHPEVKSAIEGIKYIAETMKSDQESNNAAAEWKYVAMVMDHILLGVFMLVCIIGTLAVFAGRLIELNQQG
Chain of human alpha1 nicotinic acetylcholine (nACh) receptor (P11230 24-501 partner): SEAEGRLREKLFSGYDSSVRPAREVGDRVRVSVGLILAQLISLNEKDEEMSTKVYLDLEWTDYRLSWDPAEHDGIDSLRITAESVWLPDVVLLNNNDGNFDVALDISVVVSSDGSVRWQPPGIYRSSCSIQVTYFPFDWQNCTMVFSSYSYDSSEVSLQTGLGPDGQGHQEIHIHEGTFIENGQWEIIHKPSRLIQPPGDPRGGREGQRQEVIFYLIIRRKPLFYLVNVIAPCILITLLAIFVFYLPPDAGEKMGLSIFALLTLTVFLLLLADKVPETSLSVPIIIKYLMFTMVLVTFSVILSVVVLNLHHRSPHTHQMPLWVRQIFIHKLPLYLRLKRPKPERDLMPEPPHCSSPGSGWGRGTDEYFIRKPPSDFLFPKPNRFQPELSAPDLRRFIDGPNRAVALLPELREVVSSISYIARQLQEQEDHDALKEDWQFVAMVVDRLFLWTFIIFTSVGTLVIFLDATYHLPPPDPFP
Chain of human alpha1 nicotinic acetylcholine (nACh) receptor (Q07001 22-517): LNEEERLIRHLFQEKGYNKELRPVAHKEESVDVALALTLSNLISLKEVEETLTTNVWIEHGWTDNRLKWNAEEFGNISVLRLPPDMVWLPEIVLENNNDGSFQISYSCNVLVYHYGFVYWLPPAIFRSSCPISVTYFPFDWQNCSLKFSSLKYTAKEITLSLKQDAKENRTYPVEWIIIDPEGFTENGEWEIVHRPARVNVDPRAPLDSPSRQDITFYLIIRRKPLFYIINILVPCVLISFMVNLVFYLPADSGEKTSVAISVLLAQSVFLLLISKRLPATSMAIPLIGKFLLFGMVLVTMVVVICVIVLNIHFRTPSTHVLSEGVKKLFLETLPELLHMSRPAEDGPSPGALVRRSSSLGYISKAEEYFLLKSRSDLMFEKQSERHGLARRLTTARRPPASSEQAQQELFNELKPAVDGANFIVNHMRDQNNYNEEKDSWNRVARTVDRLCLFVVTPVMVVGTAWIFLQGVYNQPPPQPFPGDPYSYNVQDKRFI
Experimental: Cells expressing human alpha1 nicotinic acetylcholine (nACh) receptor (nAChR) were washed and dissociated using Trypsin containing buffer. Cells were then washed and seeded at a density of 3-5 million cells/mL and allowed to grow for 3 days. Then, 60-80 μL of cells were added to plates and incubated with dose response of an ARM compound of Formula (I) with a top concentration of either 10 μM or 100 μM. The receptor was then stimulated via addition of acetylcholine (ACh) and activation of the receptor was monitored via the IONFlux automated patch clamp system. IonFlux Data Analyzer software was utilized to perform leak subtraction and measure (min) peak current amplitude.
Data processing: (1) Current values recorded for vehicle only applications in individual traps/patterns were subtracted from corresponding current amplitude values for control, test article and control+test article. (2) Control response was calculated as % of the average response of the 3rd out of total 3 ACh (10 mM) applications alone. In rare situations, if the 3rd ACh response was obscured due to technical artifacts, the 2nd and/or 1 st ACh (10 mM) application was considered as control. The peak current amplitude generated in the presence of each test article concentration was then used to calculate the % inhibition as compared to control response (10 mM ACh alone). These estimates were further corrected for vehicle response and run down corrected by normalizing with time matched control responses (10 mM ACh alone). The corrected percentages were then fit with a non-linear function in GraphPad Prism 6 (or later versions) to determine the […].
Exclusion criteria: (i) any n's with poor recording quality, (ii) control current amplitude <500 pA or (iii) significant outliers, as determined by the Grubbs' test.
ARMs compounds of Formula (I) of the invention were tested for antagonism of the nAChR in the above assay in […] experimental runs and the results are shown in Table 7 below. Antagonistic activity of the compounds of Formula (I) of the invention is reported as an IC50 value (half maximal inhibitory concentration) and the maximum percentage antagonism observed at the highest concentration of compound of Formula (I) tested, as indicated in Table 7. For compounds tested in more than one experimental run, the IC50 value is reported as an average.

| SMILES | EC50 [1] | pKd of Antibody for ARM Compound of Formula (I) [2] | Emax at 100 µM [3] | IC50 [3] | Emax at 10 µM [3] |
| --- | --- | --- | --- | --- | --- |
| CC(C)N(C)[C@@H]1CC[C@H](N2CC[C@H](Nc3ncnc4ccc(C(F)(F)F)cc34)C2=O)[C@H](NC(=O)[C@H]2CC[C@@H](NC(=O)CCCO[C@H]3CC[C@H](OCCNC(=O)[C@H]4CC(=O)N(C)[C@@H]4c4cccnc4)CC3)CC2)C1 [Example 5] | 0.316 nM and 0.386 nM | 9.19 | 40.5% | > 100000 nM | – |
| CC(C)N(C)[C@@H]1CC[C@H](N2CC[C@H](Nc3ncnc4ccc(C(F)(F)F)cc34)C2=O)[C@H](NC(=O)CCOCCNC(=O)CCCO[C@H]2CC[C@H](OCCNC(=O)[C@H]3CC(=O)N(C)[C@@H]3c3cccnc3)CC2)C1 [Example 7] | 0.182 nM | 9.2515 | 95% | 13700 nM | – |
| CC(C)N(C)[C@@H]1CC[C@H](N2CC[C@H](Nc3ncnc4ccc(C(F)(F)F)cc34)C2=O)[C@H](NC(=O)[C@H]2CC[C@@H](NC(=O)CCOCCOCCNC(=O)CCNC(=O)[C@H]3CC(=O)N(C)[C@@H]3c3cccnc3)CC2)C1 [Example 16, (2S,3S)-N-(3-((2-(2-(3-(((1S,4s)-4-(((1R,2S,5R)-5-(Isopropyl(methyl)amino)-2-((S)-2-oxo-3-((6-(trifluoromethyl)quinazolin-4-yl)amino)pyrrolidin-1-yl)cyclohexyl)carbamoyl)cyclohexyl)amino)-3-oxopropoxy)ethoxy)ethyl)amino)-3-oxopropyl)-1-methyl-5-oxo-2-(pyridin-3-yl)pyrrolidine-3-carboxamide] | 0.925 nM and 0.119 nM | 9.287 | 47.8% | > 100000 nM | – |
| CC(C)N(C)[C@@H]1CC[C@H](N2CC[C@H](Nc3ncnc4ccc(C(F)(F)F)cc34)C2=O)[C@H](NC(=O)[C@H]2CC[C@@H](NC(=O)CCCC(=O)NCCCOCCCNC(=O)[C@H]3CC(=O)N(C)[C@@H]3c3cccnc3)CC2)C1 [Example 18, N^1-((1S,4s)-4-(((1R,2S,5R)-5-(Isopropyl(methyl)amino)-2-((S)-2-oxo-3-((6-(trifluoromethyl)quinazolin-4-yl)amino)pyrrolidin-1-yl)cyclohexyl)carbamoyl)cyclohexyl)-N^5-(3-(3-((2S,3S)-1-methyl-5-oxo-2-(pyridin-3-yl)pyrrolidine-3-carboxamido)propoxy)propyl)glutaramide] | 0.675 nM and 0.132 nM | 9.0895 | 44.9% | > 100000 nM | – |
| CC(C)N(C)[C@@H]1CC[C@H](N2CC[C@H](Nc3ncnc4ccc(C(F)(F)F)cc34)C2=O)[C@H](NC(=O)[C@H]2CC[C@H](NC(=O)CCCC(=O)NCCCOCCCNC(=O)[C@H]3CC(=O)N(C)[C@@H]3c3cccnc3)CC2)C1 [Example 19] | 4.9 nM | 9.19 | 34.2% | > 100000 nM | – |
| CN1C(=O)C[C@H](C(=O)NCCOCCOCCOCCC(=O)N[C@H]2CC[C@@H](C(=O)N[C@@H]3C[C@H](NC(C)(C)C)CC[C@@H]3N3CC[C@H](Nc4ncnc5ccc(C(F)(F)F)cc45)C3=O)CC2)[C@H]1c1cccnc1 [Example 23, (2S,3S)-N-(2-(2-(2-(3-(((1S,4s)-4-(((1R,2S,5R)-5-(tert-Butylamino)-2-((S)-2-oxo-3-((6-(trifluoromethyl)quinazolin-4-yl)amino)pyrrolidin-1-yl)cyclohexyl)carbamoyl)cyclohexyl)amino)-3-oxopropoxy)ethoxy)ethoxy)ethyl)-1-methyl-5-oxo-2-(pyridin-3-yl)pyrrolidine-3-carboxamide] | 1.12 nM and 2.69 nM and 0.566 nM | 9.2166 | 50.5% | 85200 nM | – |
| CC(C)N(C)[C@@H]1CC[C@H](N2CC[C@H](Nc3ncnc4ccc(C(F)(F)F)cc34)C2=O)[C@H](NC(=O)[C@H]2C[C@@H](NC(=O)CCOCCOCCOCCNC(=O)[C@H]3CC(=O)N(C)[C@@H]3c3cccnc3)C2)C1 [Example 24] | 1.46 nM and 0.358 nM | 9.4425 | 59.5% | 85300 nM | – |
| CC(C)N(C)[C@@H]1CC[C@H](N2CC[C@H](Nc3ncnc4ccc(C(F)(F)F)cc34)C2=O)[C@H](NC(=O)[C@H]2CC[C@@H](NC(=O)CCOCCOCCOCCNC(=O)[C@H]3CC(=O)N(C)[C@@H]3c3cccnc3)CC2)C1 [Example 28] | 0.251 nM | 9.273 | 69.9% | 40900 nM | – |
| CC(C)N(C)[C@@H]1CC[C@H](N2CC[C@H](Nc3ncnc4ccc(C(F)(F)F)cc34)C2=O)[C@H](NC(=O)[C@H]2CC[C@@H](CC(=O)CCCOC[C@H]3CC[C@H](COCCNC(=O)[C@H]4CC(=O)N(C)[C@@H]4c4cccnc4)CC3)CC2)C1 [Example 60] | – | 9.4635 | – | > 10000 nM | 18.2% |
| CC(C)N(C)[C@@H]1CC[C@H](N2CC[C@H](Nc3ncnc4ccc(C(F)(F)F)cc34)C2=O)[C@H](NC(=O)[C@H]2CC[C@@H](NC(=O)CCCOCCCCOCCNC(=O)[C@H]3CC(=O)N(C)[C@@H]3c3cccnc3)CC2)C1 [Example 122] | – | 9.146 | – | > 10000 nM | 23% |
| CC(C)N(C)[C@@H]1CC[C@H](N2CC[C@H](Nc3ncnc4ccc(C(F)(F)F)cc34)C2=O)[C@H](NC(=O)COCCNC(=O)CCNC(=O)CCOCCOCCNC(=O)[C@H]2CC(=O)N(C)[C@@H]2c2cccnc2)C1 [Example 181, (2S,3S)-N-(1-(((1R,2S,5R)-5-(Isopropyl(methyl)amino)-2-((S)-2-oxo-3-((6-(trifluoromethyl)quinazolin-4-yl)amino)pyrrolidin-1-yl)cyclohexyl)amino)-1,7,11-trioxo-3,14,17-trioxa-6,10-diazanonadecan-19-yl)-1-methyl-5-oxo-2-(pyridin-3-yl)pyrrolidine-3-carboxamide] | 0.675 nM | 9.1645 | – | – | – |
| CC(C)N(C)[C@@H]1CC[C@H](N2CC[C@H](Nc3ncnc4ccc(C(F)(F)F)cc34)C2=O)[C@H](NC(=O)[C@H]2CC[C@@H](NC(=O)CCOCCNC(=O)CCCCNC(=O)[C@H]3CC(=O)N(C)[C@@H]3c3cccnc3)CC2)C1 [Example 198, (2S,3S)-N-(5-((2-(3-(((1S,4s)-4-(((1R,2S,5R)-5-(Isopropyl(methyl)amino)-2-((S)-2-oxo-3-((6-(trifluoromethyl)quinazolin-4-yl)amino)pyrrolidin-1-yl)cyclohexyl)carbamoyl)cyclohexyl)amino)-3-oxopropoxy)ethyl)amino)-5-oxopentyl)-1-methyl-5-oxo-2-(pyridin-3-yl)pyrrolidine-3-carboxamide] | 0.398 nM and 0.316 nM | 9.3835 | – | – | – |
| CC(C)N(C)[C@@H]1CC[C@H](N2CC[C@H](Nc3ncnc4ccc(C(F)(F)F)cc34)C2=O)[C@H](NC(=O)[C@H]2CC[C@@H](NC(=O)COCCNC(=O)CCOCCNC(=O)[C@H]3CC(=O)N(C)[C@@H]3c3cccnc3)CC2)C1 [compound 152] | 1.4 nM | 9.111 | – | – | – |
| CC(C)N(C)[C@@H]1CC[C@H](N2CC[C@H](Nc3ncnc4ccc(C(F)(F)F)cc34)C2=O)[C@H](NC(=O)CCOCCOCCOCCNc2c(NCCCNC(=O)[C@H]3CC(=O)N(C)[C@@H]3c3cccnc3)c(=O)c2=O)C1 [compound 169] | 1.05 nM | 9.0085 | – | – | – |
| CC(C)N(C)[C@@H]1CC[C@H](N2CC[C@H](Nc3ncnc4ccc(C(F)(F)F)cc34)C2=O)[C@H](NC(=O)CCCC(=O)N[C@H]2CC[C@H](CNC(=O)CCOCCNC(=O)[C@H]3CC(=O)N(C)[C@@H]3c3cccnc3)CC2)C1 [compound 180] | 0.456 nM | 9.249 | – | – | – |
